Experimental data from ChEMBL document CHEMBL3885861, “Open TG-GATES”.

Species: Rattus norvegicus
Assay: Open TG-GATES - Regimen: Daily Repeat
Assay type: toxicity, organism-based, Sprague-Dawley
Set-up: regimen Daily Repeat, gender Male, age 6 weeks
Settings: in vivo, po, route gavage; for A/G / ALP / ALT / AST / BUN / CRE / Ca / Cl / DBIL / GLC / IP / K / LDH / Na / PL / RALB / TBIL / TC / TG / TP / gamma-GTP: tissue Plasma; for APTT / Bas / Eos / Fbg / Hb / Ht / Lym / MCH / MCHC / MCV / Mono / Neu / PT / Plat / RBC / Ret / WBC: tissue Blood; for KIDNEY_L / KIDNEY_R / KIDNEY_TOTAL: tissue Kidney; for LIVER: tissue Liver
[1] = 1 mg/kg, […], dose level Low, time 14 day
[2] = 1 mg/kg, […], dose level Low, time 28 day
[3] = 2 mg/kg, 72 h, dose level Middle, time 3 day
[4] = 2 mg/kg, […], dose level Middle, time 7 day
[5] = 2 mg/kg, […], dose level Middle, time 14 day
[6] = 2 mg/kg, […], dose level Middle, time 28 day
[7] = 5 mg/kg, 72 h, dose level High, time 3 day
[8] = 5 mg/kg, […], dose level High, time 7 day
[9] = 5 mg/kg, […], dose level High, time 14 day

COc1ccc2c(c1)c(CC(=O)O)c(C)n2C(=O)c1ccc(Cl)cc1 [INDOMETHACIN]
A/G [1]: 1.8 | ALP [1]: 725.6 IU/L | ALT [1]: 33.6 IU/L | AST [1]: 60.6 IU/L | BUN [1]: 19.6 mg/dL | CRE [1]: 0.6 mg/dL | Ca [1]: 10.5 mg/dL | Cl [1]: 105.6 meq/L | DBIL [1]: 0.004 mg/dL | GLC [1]: 194.8 mg/dL | IP [1]: 8.1 mg/dL | K [1]: 4.5 meq/L | LDH [1]: 87.2 IU/L | Na [1]: 139.4 meq/L | PL [1]: 165.2 mg/dL | RALB [1]: 4.2 g/dL | TBIL [1]: 0.3 mg/dL | TC [1]: 81.2 mg/dL | TG [1]: 161 mg/dL | TP [1]: 6.5 g/dL | gamma-GTP [1]: 1.4 IU/L | A/G [2]: 1.9 | ALP [2]: 695.6 IU/L | ALT [2]: 31 IU/L | AST [2]: 62.6 IU/L | BUN [2]: 21.6 mg/dL | CRE [2]: 0.7 mg/dL | Ca [2]: 10.6 mg/dL | Cl [2]: 106.6 meq/L | DBIL [2]: 0.008 mg/dL | GLC [2]: 203.8 mg/dL | IP [2]: 7.8 mg/dL | K [2]: 4.2 meq/L | LDH [2]: 101.8 IU/L | Na [2]: 139.6 meq/L | PL [2]: 157.8 mg/dL | RALB [2]: 4.2 g/dL | TBIL [2]: 0.3 mg/dL | TC [2]: 77.8 mg/dL | TG [2]: 178.4 mg/dL | TP [2]: 6.5 g/dL | gamma-GTP [2]: 1.2 IU/L | TERMINAL_BW [3]: 238.9 g | APTT [3]: 16 s | Bas [3]: 0% | Eos [3]: 0.6% | Fbg [3]: 218.2 mg/dL | Hb [3]: 13.5 g/dL | Ht [3]: 40.5% | Lym [3]: 82.2% | MCH [3]: 21.1 pg | MCHC [3]: 33.4% | MCV [3]: 63.3 fL | Mono [3]: 6.4% | Neu [3]: 10.8% | PT [3]: 11.1 s | Plat [3]: 112.9 x10_4/uL | RBC [3]: 638.8 x10_4/ul | Ret [3]: 7.1% | WBC [3]: 126.4 x10_2/uL | KIDNEY_L [3]: 1.1 g | KIDNEY_R [3]: 1.1 g | KIDNEY_TOTAL [3]: 2.1 g | LIVER [3]: 11.6 g | A/G [3]: 2.1 | ALP [3]: 1212.4 IU/L | ALT [3]: 32.8 IU/L | AST [3]: 62 IU/L | BUN [3]: 17 mg/dL | CRE [3]: 0.6 mg/dL | Ca [3]: 10.5 mg/dL | Cl [3]: 107.2 meq/L | DBIL [3]: 0.058 mg/dL | GLC [3]: 199.6 mg/dL | IP [3]: 8.3 mg/dL | K [3]: 4.9 meq/L | LDH [3]: 91.6 IU/L | Na [3]: 139.6 meq/L | PL [3]: 143.8 mg/dL | RALB [3]: 3.9 g/dL | TBIL [3]: 0.4 mg/dL | TC [3]: 78.2 mg/dL | TG [3]: 64.8 mg/dL | TP [3]: 5.7 g/dL | gamma-GTP [3]: 1 IU/L | TERMINAL_BW [4]: 284.3 g | TERMINAL_BW [5]: 341.8 g | TERMINAL_BW [6]: 428.5 g | APTT [4]: 16.5 s | Bas [4]: 0% | Eos [4]: 1% | Fbg [4]: 240 mg/dL | Hb [4]: 13.7 g/dL | Ht [4]: 41.4% | Lym [4]: 79.8% | MCH [4]: 20.6 pg | MCHC [4]: 33.1% | MCV [4]: 62.2 fL | Mono [4]: 8% | Neu [4]: 11.6% | PT [4]: 11.7 s | Plat [4]: 112.9 x10_4/uL | RBC [4]: 666.6 x10_4/ul | Ret [4]: 6.2% | WBC [4]: 126.6 x10_2/uL | APTT [5]: 16.2 s | Bas [5]: 0% | Eos [5]: 0.8% | Fbg [5]: 236.6 mg/dL | Hb [5]: 14.2 g/dL | Ht [5]: 43.1% | Lym [5]: 86.4% | MCH [5]: 20.5 pg | MCHC [5]: 32.9% | MCV [5]: 62.4 fL | Mono [5]: 5.8% | Neu [5]: 7.2% | PT [5]: 11.8 s | Plat [5]: 114.5 x10_4/uL | RBC [5]: 689.8 x10_4/ul | Ret [5]: 5.1% | WBC [5]: 134.6 x10_2/uL | APTT [6]: 16.9 s | Bas [6]: 0% | Eos [6]: 1% | Fbg [6]: 255.2 mg/dL | Hb [6]: 15.1 g/dL | Ht [6]: 45.3% | Lym [6]: 83.6% | MCH [6]: 19.6 pg | MCHC [6]: 33.4% | MCV [6]: 58.6 fL | Mono [6]: 3.8% | Neu [6]: 11.4% | PT [6]: 11.9 s | Plat [6]: 101.6 x10_4/uL | RBC [6]: 774.2 x10_4/ul | Ret [6]: 3.1% | WBC [6]: 136.4 x10_2/uL | KIDNEY_L [4]: 1.2 g | KIDNEY_R [4]: 1.2 g | KIDNEY_TOTAL [4]: 2.4 g | KIDNEY_L [5]: 1.3 g | KIDNEY_R [5]: 1.3 g | KIDNEY_TOTAL [5]: 2.6 g | KIDNEY_L [6]: 1.5 g | KIDNEY_R [6]: 1.5 g | KIDNEY_TOTAL [6]: 3 g | LIVER [4]: 14.5 g | LIVER [5]: 16.3 g | LIVER [6]: 18.6 g | A/G [4]: 2 | ALP [4]: 1041.2 IU/L | ALT [4]: 33.2 IU/L | AST [4]: 61.4 IU/L | BUN [4]: 19.4 mg/dL | CRE [4]: 0.6 mg/dL | Ca [4]: 11.3 mg/dL | Cl [4]: 106.4 meq/L | DBIL [4]: 0.006 mg/dL | GLC [4]: 192.2 mg/dL | IP [4]: 8.4 mg/dL | K [4]: 4.8 meq/L | LDH [4]: 105.8 IU/L | Na [4]: 140 meq/L | PL [4]: 163.8 mg/dL | RALB [4]: 4.1 g/dL | TBIL [4]: 0.4 mg/dL | TC [4]: 88 mg/dL | TG [4]: 134.2 mg/dL | TP [4]: 6.3 g/dL | gamma-GTP [4]: 1 IU/L | A/G [5]: 1.9 | ALP [5]: 898.8 IU/L | ALT [5]: 32 IU/L | AST [5]: 53.2 IU/L | BUN [5]: 22.6 mg/dL | CRE [5]: 0.6 mg/dL | Ca [5]: 10.8 mg/dL | Cl [5]: 106.2 meq/L | DBIL [5]: 0.006 mg/dL | GLC [5]: 201.2 mg/dL | IP [5]: 8.3 mg/dL | K [5]: 4.7 meq/L | LDH [5]: 89.8 IU/L | Na [5]: 139.6 meq/L | PL [5]: 151.4 mg/dL | RALB [5]: 4.1 g/dL | TBIL [5]: 0.3 mg/dL | TC [5]: 72.2 mg/dL | TG [5]: 141.2 mg/dL | TP [5]: 6.3 g/dL | gamma-GTP [5]: 1 IU/L | A/G [6]: 1.7 | ALP [6]: 678.8 IU/L | ALT [6]: 31.6 IU/L | AST [6]: 65 IU/L | BUN [6]: 21.4 mg/dL | CRE [6]: 0.7 mg/dL | Ca [6]: 10.7 mg/dL | Cl [6]: 107 meq/L | DBIL [6]: 0.004 mg/dL | GLC [6]: 185.2 mg/dL | IP [6]: 7.5 mg/dL | K [6]: 4.4 meq/L | LDH [6]: 90.4 IU/L | Na [6]: 140.4 meq/L | PL [6]: 157.4 mg/dL | RALB [6]: 4.3 g/dL | TBIL [6]: 0.3 mg/dL | TC [6]: 80 mg/dL | TG [6]: 179.2 mg/dL | TP [6]: 6.8 g/dL | gamma-GTP [6]: 1.8 IU/L | TERMINAL_BW [7]: 240.2 g | APTT [7]: 16.8 s | Bas [7]: 0% | Eos [7]: 0.6% | Fbg [7]: 308.4 mg/dL | Hb [7]: 12.7 g/dL | Ht [7]: 38% | Lym [7]: 68.4% | MCH [7]: 21.5 pg | MCHC [7]: 33.5% | MCV [7]: 64.4 fL | Mono [7]: 12.4% | Neu [7]: 18.6% | PT [7]: 11.1 s | Plat [7]: 98 x10_4/uL | RBC [7]: 589.8 x10_4/ul | Ret [7]: 7.9% | WBC [7]: 137.8 x10_2/uL | KIDNEY_L [7]: 1.1 g | KIDNEY_R [7]: 1.1 g | KIDNEY_TOTAL [7]: 2.2 g | LIVER [7]: 12.4 g | A/G [7]: 1.7 | ALP [7]: 739.2 IU/L | ALT [7]: 29.8 IU/L | AST [7]: 54 IU/L | BUN [7]: 16.2 mg/dL | CRE [7]: 0.6 mg/dL | Ca [7]: 10.5 mg/dL | Cl [7]: 107.6 meq/L | DBIL [7]: 0.038 mg/dL | GLC [7]: 191.6 mg/dL | IP [7]: 8.3 mg/dL | K [7]: 4.6 meq/L | LDH [7]: 160.4 IU/L | Na [7]: 140.4 meq/L | PL [7]: 147 mg/dL | RALB [7]: 3.4 g/dL | TBIL [7]: 0.3 mg/dL | TC [7]: 76.2 mg/dL | TG [7]: 135.4 mg/dL | TP [7]: 5.5 g/dL | gamma-GTP [7]: 1.6 IU/L | TERMINAL_BW [8]: 244 g | APTT [8]: 18.4 s | Bas [8]: 0% | Eos [8]: 0.8% | Fbg [8]: 377 mg/dL | Hb [8]: 11.7 g/dL | Ht [8]: 35% | Lym [8]: 51.5% | MCH [8]: 20.4 pg | MCHC [8]: 33.4% | MCV [8]: 61.1 fL | Mono [8]: 12.2% | Neu [8]: 36% | PT [8]: 11.8 s | Plat [8]: 143.2 x10_4/uL | RBC [8]: 571.8 x10_4/ul | Ret [8]: 10.2% | WBC [8]: 128.2 x10_2/uL | PT [9]: 11.3 s | KIDNEY_L [8]: 1.1 g | KIDNEY_R [8]: 1.1 g | KIDNEY_TOTAL [8]: 2.2 g | LIVER [8]: 11.6 g | A/G [8]: 1.2 | ALP [8]: 1313 IU/L | ALT [8]: 31.2 IU/L | AST [8]: 91.5 IU/L | BUN [8]: 19.8 mg/dL | CRE [8]: 0.6 mg/dL | Ca [8]: 10.8 mg/dL | Cl [8]: 102.2 meq/L | DBIL [8]: 0.1 mg/dL | GLC [8]: 169.8 mg/dL | IP [8]: 11.3 mg/dL | K [8]: 6.1 meq/L | LDH [8]: 180.8 IU/L | Na [8]: 133.5 meq/L | PL [8]: 135.8 mg/dL | RALB [8]: 2.9 g/dL | TBIL [8]: 0.4 mg/dL | TC [8]: 71 mg/dL | TG [8]: 106.5 mg/dL | TP [8]: 5.6 g/dL | gamma-GTP [8]: 5.8 IU/L | TBIL [9]: 0.3 mg/dL | TC [9]: 66.5 mg/dL
